From the supplement of paper PMC11451515

Columns and labels:
Settings in all cases: 48 h
SEM cells [1] = test: cell viability relative to DMSO control; higher = less cytotoxic
Outline: (§1)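 Cells were incubated for 48 h at 37°C before CellTiter-Glo One luminescence was read. The cells were NOMO1 or SEM (500 cells/well) or P12-Ichikawa (1000 cells/well) leukemia cells, adapted for at least four passages in each medium and seeded in 1536-well plates (5 μl). Dosing used library compounds in DMSO applied by pin over 11 threefold points, 47 μM to 0.79 nM. Viability is the per-plate percentage of DMSO wells, with cell-free wells as background.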

NOMO1 [2] = test: as above
Outline: as §1

P12-Ichikawa [3] = test: as above
Outline: as §1

SEM cells [4] = test: AUC of viability dose-response curve (% viability x log10 dose units); higher = less sensitive
Outline: (§2)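 Leukemia cells adapted to each medium were seeded in 1536-well plates (500 or 1000 cells/well). They were dosed with library compounds in DMSO at 11 threefold doses, 47 μM to 0.79 nM, for 48 h at 37°C. CellTiter-Glo One luminescence was normalised per plate to DMSO and cell-free wells. Area under the curve was integrated by trapezoidal rule over log10 doses on a four-parameter log-logistic fit; curves exceeding full viability were scaled and curves failing quality control removed.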

NOMO1 [5] = test: as above
Outline: as §2

P12-Ichikawa [6] = test: as above
Outline: as §2

C[C@](O)(CS(=O)(=O)c1ccc(F)cc1)C(=O)Nc1ccc(C#N)c(C(F)(F)F)c1
cell viability [%]
Settings | NOMO1 [2] | P12-Ichikawa [3] | SEM cells [1]
HPLM + 10% dialyzed FBS, 0.000781 µM | 106 | 97.6 | 93.9
HPLM + 10% dialyzed FBS, 0.00234 µM | 100 | 115 | 108
HPLM + 10% dialyzed FBS, 0.00702 µM | 111 | 110 | 104
HPLM + 10% dialyzed FBS, 0.0211 µM | 121 | 120 | 89.4
HPLM + 10% dialyzed FBS, 0.0632 µM | 126 | 115 | 116
HPLM + 10% dialyzed FBS, 0.19 µM | 128 | 115 | 112
HPLM + 10% dialyzed FBS, 0.569 µM | 104 | 124 | 114
HPLM + 10% dialyzed FBS, 1.71 µM | 123 | 119 | 116
HPLM + 10% dialyzed FBS, 5.12 µM | 115 | 118 | 105
HPLM + 10% dialyzed FBS, 15.4 µM | 116 | 114 | 109
HPLM + 10% dialyzed FBS, 46.1 µM | 134 | 107 | 93.4
RPMI 5 mM glucose + 10% FBS, 0.000781 µM | 103 | 104 | 81.3
RPMI 5 mM glucose + 10% FBS, 0.00234 µM | 108 | 110 | 101
RPMI 5 mM glucose + 10% FBS, 0.00702 µM | 128 | 112 | 99.7
RPMI 5 mM glucose + 10% FBS, 0.0211 µM | 140 | 109 | 74.3
RPMI 5 mM glucose + 10% FBS, 0.0632 µM | 133 | 111 | 88.6
RPMI 5 mM glucose + 10% FBS, 0.19 µM | 141 | 108 | 97.2
RPMI 5 mM glucose + 10% FBS, 0.569 µM | 134 | 114 | 102
RPMI 5 mM glucose + 10% FBS, 1.71 µM | 128 | 110 | 88.4
RPMI 5 mM glucose + 10% FBS, 5.12 µM | 126 | 126 | 93
RPMI 5 mM glucose + 10% FBS, 15.4 µM | 133 | 119 | 91
RPMI 5 mM glucose + 10% FBS, 46.1 µM | 137 | 105 | 75.3
RPMI 5 mM glucose + 10% dialyzed FBS, 0.000781 µM | 112 | 102 | 105
RPMI 5 mM glucose + 10% dialyzed FBS, 0.00234 µM | 119 | 118 | 113
RPMI 5 mM glucose + 10% dialyzed FBS, 0.00702 µM | 132 | 126 | 116
RPMI 5 mM glucose + 10% dialyzed FBS, 0.0211 µM | 135 | 130 | 73.4
RPMI 5 mM glucose + 10% dialyzed FBS, 0.0632 µM | 127 | 122 | 119
RPMI 5 mM glucose + 10% dialyzed FBS, 0.19 µM | 124 | 120 | 111
RPMI 5 mM glucose + 10% dialyzed FBS, 0.569 µM | 129 | 132 | 132
RPMI 5 mM glucose + 10% dialyzed FBS, 1.71 µM | 131 | 120 | 122
RPMI 5 mM glucose + 10% dialyzed FBS, 5.12 µM | 129 | 130 | 96.1
RPMI 5 mM glucose + 10% dialyzed FBS, 15.4 µM | 120 | 113 | 97.5
RPMI 5 mM glucose + 10% dialyzed FBS, 46.1 µM | 131 | 101 | 72.7

AUC of viability dose-response curve
Settings | NOMO1 [5] | P12-Ichikawa [6] | SEM cells [4]
HPLM + 10% dialyzed FBS | 443 | 472 | 461
RPMI 5 mM glucose + 10% FBS | 460 | 463 | 433
RPMI 5 mM glucose + 10% dialyzed FBS | 470 | 470 | 444
